Results as given in patent EP4467974A1, “NOVEL CHEMOSENSORS AND THEIR USE IN ELECTROCHEMICAL DETECTION METHODS” (Karlsruher Institut für Technologie, priority 2023, dated 2024).
Like-named read-outs stand apart in the source and are kept apart here.

What was measured:
[1] = Binding affinity (log Ka) of guests for the macrocyclic receptor cucurbit[7]uril; details: PtC as indicator for CB7 (CB7⊃PtC inclusion complex), result in words
[2] = cited from earlier work
[3] = binding affinity for CB7 (host-guest complex)

Compound | log Ka [2, 3] | other results
OCCOCCOCCn1cc2[n+](n1)[Pt-2]([Cl])([Cl])[n+]1ccccc1-2 [PtC] |  | binding affinity [1]: intermediate
NCCc1ccc(O)c(O)c1 [dopamine] | 5.0 | 
CC(=O)O[C@H]1C[C@@H]2CC[C@@H]3[C@H](CC[C@@]4(C)[C@H]3C[C@H]([N+]3(C)CCCCC3)[C@@H]4OC(C)=O)[C@@]2(C)C[C@@H]1[N+]1(C)CCCCC1 [pancuronium bromide] |  | log Ka [2]: 10.23
NCCc1c[nH]c2ccc(O)cc12 [serotonin] | 4.8 | 
